Measured values taken from US20090105119A1, “ASPARAGINE-10-SUBSTITUTED NONADEPSIPEPTIDES” (priority 2006, published 2009).
*1 amine or outer side, *2 acyl side, *3 side chain or, on linkers, in order; H or OH if unused. Where a SMILES comes first, the peptide text is derived from it. Bridges are numbered along the chain shown (N, C = ends). Side-chain parts run from the residue outwards. [ ]: non-standard residue; d: D form. The star is where a group is joined. X4 = O=C(CNC(=O)[C@@H](O)[C@H](N[*:1])C(=O)[*:2])OCc1ccccc1; Phe(3R-OH) = O=C([C@@H](N[*:1])[C@H](O[*:3])c1ccccc1)[*:2]; X6 = NC(=O)CNC(=O)[C@@H](O)[C@H](N[*:1])C(=O)[*:2]; X3 = O=C([C@@H](N[*:1])[C@H](O)C(=O)[*:3])[*:2]; X5 = NCCNC(=O)[C@@H](O)[C@H](N[*:1])C(=O)[*:2]; Leu(3R-OH) = CC(C)[C@@H](O)[C@H](N)C(=O)O; Ethylenediamine = C(CN[*:2])N[*:1]; aThr = C[C@H](O)[C@H](N)C(=O)O; Cbz = O=C(OCc1ccccc1)*

How the values were obtained:
[1] = test system: E. faecalis ICB 27159; type: cell-based, Enterococcus faecalis; conditions: ICB 27159
Experimental: (§1) Determination of the Minimum Inhibitory Concentration (MIC):
(§2) The MIC is determined in the liquid dilution test in accordance with the NCCLS guidelines. Overnight cultures of Staphylococcus aureus 133, Enterococcus faecalis 27159, E. faecium 4147 and Streptococcus pneumoniae G9a are incubated with the described test substances in a 1:2 dilution series. The MIC determination is carried out with a cell count of 10^5 microbes per ml in Isosensitest medium (Difco, Irvine/USA), with the exception of S. pneumoniae which is tested in BHI broth (Difco, Irvine/USA) with 10% bovine serum with a cell count of 10^6 microbes per ml. The cultures are incubated at 37° C. for 18-24 hours, S. pneumoniae in the presence of 10% CO2.
(§3) The MIC is defined as the lowest concentration of each substance at which no visible bacterial growth occurs any longer. The MIC values are reported in μg/ml.

[2] = test system: Streptococcus pneumoniae G9a; type: cell-based; conditions: G9a
Experimental: as §1, §2, §3

[3] = test system: Staphylococcus aureus 133; type: cell-based; conditions: 133
Experimental: as §1, §2, §3

Compound | MIC E. faecalis ICB 27159 [1] [µg/mL] | MIC S. pneumoniae G9a [2] [µg/mL] | MIC S. aureus 133 [3] [µg/mL]
CC[C@H](C)[C@@H]1NC(=O)[C@@H](CCCNC(=N)N)NC(=O)[C@H](CC(C)C)NC(=O)[C@H]([C@H](O)C(C)C)NC(=O)[C@@H](NC(=O)[C@H](CC(C)C)NC(=O)[C@H](N)CC(C)C)[C@@H](c2ccccc2)OC(=O)[C@H](CO)NC(=O)[C@H]([C@H](O)C(=O)NCC(=O)OCc2ccccc2)NC(=O)CNC(=O)[C@H]([C@H](C)O)NC1=O.O=C(O)C(F)(F)F.O=C(O)C(F)(F)F [Example 8, N^4.10-(2-(Benzyloxy)-2-oxoethyl)-D-leucyl-L-leucyl-[(3R)-3-hydroxy-L-phenylalanyl]-[(3R)-3-hydroxy-L-leucyl]-L-leucyl-D-arginyl-L-isoleucyl-L-allothreonylglycyl-[(3S)-3-hydroxy-L-β-asparaginyl]-L-serine C^1.11—O^3.3-lactone Bistrifluoroacetate] (H-[dL]L[Phe(3R-OH)][Leu(3R-OH)]L[dR]I[aThr]G[X4]S; ester 3-C) | 16 | 2 | 0.5
CC[C@H](C)[C@@H]1NC(=O)[C@@H](CCCNC(=N)N)NC(=O)[C@H](CC(C)C)NC(=O)[C@H]([C@H](O)C(C)C)NC(=O)[C@@H](NC(=O)[C@H](CC(C)C)NC(=O)[C@H](N)CC(C)C)[C@@H](c2ccccc2)OC(=O)[C@H](CO)NC(=O)[C@H]([C@H](O)C(=O)NCCNC(=O)OCc2ccccc2)NC(=O)CNC(=O)[C@H]([C@H](C)O)NC1=O.O=C(O)C(F)(F)F.O=C(O)C(F)(F)F [Example 9, N^4.10-(2-{[(Benzyloxy)carbonyl]amino}ethyl)-D-leucyl-L-leucyl-[(3R)-3-hydroxy-L-phenylalanyl]-[(3R)-3-hydroxy-L-leucyl]-L-leucyl-D-arginyl-L-isoleucyl-L-allothreon-ylglycyl-[(3S)-3-hydroxy-L-asparaginyl]-L-serine C^1.11—O^3.3-lactone Bistrifluoroacetate] (H-[dL]L[Phe(3R-OH)][Leu(3R-OH)]L[dR]I[aThr]G[X3]([Ethylenediamine-Cbz])S; ester 3-C) | 16 | 2 | 0.5
CC[C@H](C)[C@@H]1NC(=O)[C@@H](CCCNC(=N)N)NC(=O)[C@H](CC(C)C)NC(=O)[C@H]([C@H](O)C(C)C)NC(=O)[C@@H](NC(=O)[C@H](CC(C)C)NC(=O)[C@H](N)CC(C)C)[C@@H](c2ccccc2)OC(=O)[C@H](CO)NC(=O)[C@H]([C@H](O)C(=O)NCC(N)=O)NC(=O)CNC(=O)[C@H]([C@H](C)O)NC1=O.O=C(O)C(F)(F)F.O=C(O)C(F)(F)F [Example 10, N^4.10-(2-Amino-2-oxoethyl)-D-leucyl-L-leucyl-[(3R)-3-hydroxy-L-phenylalanyl]-[(3R)-3-hydroxy-L-leucyl]-L-leucyl-D-arginyl-L-isoleucyl-L-allothreonylglycyl-[(3S)-3-hydroxy-L-asparaginyl]-L-serine C^1.11—O^3.3-lactone Bistrifluoroacetate] (H-[dL]L[Phe(3R-OH)][Leu(3R-OH)]L[dR]I[aThr]G[X6]S; ester 3-C) | 2 | 1 | 0.25
CC[C@H](C)[C@@H]1NC(=O)[C@@H](CCCNC(=N)N)NC(=O)[C@H](CC(C)C)NC(=O)[C@H]([C@H](O)C(C)C)NC(=O)[C@@H](NC(=O)[C@H](CC(C)C)NC(=O)[C@H](N)CC(C)C)[C@@H](c2ccccc2)OC(=O)[C@H](CO)NC(=O)[C@H]([C@H](O)C(=O)NCCN)NC(=O)CNC(=O)[C@H]([C@H](C)O)NC1=O.O=C(O)C(F)(F)F.O=C(O)C(F)(F)F.O=C(O)C(F)(F)F [Example 12, N^4.10-(2-Aminoethyl)-D-leucyl-L-leucyl-[(3R)-3-hydroxy-L-phenylalanyl]-[(3R)-3-hydroxy-L-leucyl]-L-leucyl-D-arginyl-L-isoleucyl-L-allothreonylglycyl-[(3S)-3-hydroxy-L-asparaginyl]-L-serine C^1.11—O^3.3-lactone Tristrifluoroacetate] (H-[dL]L[Phe(3R-OH)][Leu(3R-OH)]L[dR]I[aThr]G[X5]S; ester 3-C) | 8 | 2 | 0.5
